{
  "source": "patent US11807693B2",
  "about": "(priority 2014, dated 2023)",
  "test_system": "isolated perfused rat hearts",
  "test": "Langendorff isolated perfused rat heart",
  "details": "FIGS. 4A-D and 5A-D",
  "source_text": "To assess the hemodynamic cardiac function of the peptides, a Langendorff isolated heart system was used. The isolated heart from rat provides a broad spectrum of measurements that can include biochemical, metabolic, morphological and physiological indices. Although the system lacks neurohormonal influences, neural regulation and high coronary flows, the advantages of the system include the ability to study direct cardiac effects without systemic circulation and a host of peripheral interactions. This method can yield excellent dose-response relationships and provides critical insight into the pharmacological and physiological properties of the molecules of interest.\nAnimals were anesthetized through administration of 50-100 mg/kg dose of sodium pentobarbital via the intraperitoneal route. The heart was excised and gently cradled between fingers to avoid injury followed by lifting slightly before incising the aorta, vena cava and pulmonary vessels. Immediately after excision of the heart with aorta, the heart was mounted onto the cannula in the Langendorff apparatus via the aorta. […] The pressure was measured through a pressure sensing balloon catheter inserted in the left ventricular cavity. The intrinsic inotropy (force of muscle contraction) and lusitropy (cardiac relaxation) effects of the heart were assessed by dp/dtmax and dp/dtmin.",
  "note": "Non-standard residues stand in square brackets, D forms with d. Residues, ends and D or L forms follow the SMILES beside them. ξ: configuration not given here. dBip = N[C@H](Cc1ccc(-c2ccccc2)cc1)C(=O)O; Oic(3aξ,7aξ) = O=C(O)[C@@H]1CC2CCCCC2N1; Phe(4-I) = N[C@@H](Cc1ccc(I)cc1)C(=O)O; hArg = N=C(N)NCCCC[C@H](N)C(=O)O; NMeL = CN[C@@H](CC(C)C)C(=O)O",
  "data": [
    {"smiles": "CC(=O)N[C@@H](CCCCNC(=N)N)C(=O)N[C@H](CCCNC(=N)N)C(=O)N[C@@H](CCC(N)=O)C(=O)N[C@@H](CCCCNC(=N)N)C(=O)N1CCC[C@H]1C(=O)N[C@H](CCCNC(=N)N)C(=O)N(C)[C@@H](CC(C)C)C(=O)N[C@@H](CO)C(=O)N[C@@H](Cc1c[nH]cn1)C(=O)N[C@@H](CCCCN)C(=O)NCC(=O)N1C2CCCCC2C[C@H]1C(=O)N[C@@H](Cc1ccc(I)cc1)C(=O)N1CCC[C@H]1C(=O)N[C@H](Cc1ccc(-c2ccccc2)cc1)C(=O)O", "note": "(stereo partly drawn) [SEQ ID NO: 16, Acetyl-[hArg][r]Q[hArg]P[r][NMeLeu]SHKG[Oic][pI-Phe]P[D-Bip]{COOH}] (Ac-[hArg][dR]Q[hArg]P[dR][NMeL]SHKG[Oic(3aξ,7aξ)][Phe(4-I)]P[dBip]-OH)", "values": [
      {"measurement": "systolic and diastolic function in isolated perfused rat hearts", "result": "dose-dependent improvement of both systolic and diastolic function"}
    ]},
    {"smiles": "CC(=O)N[C@@H](CCC(N)=O)C(=O)N[C@@H](CCCCNC(=N)N)C(=O)N1CCC[C@H]1C(=O)N[C@H](CCCNC(=N)N)C(=O)N(C)[C@@H](CC(C)C)C(=O)N[C@@H](CO)C(=O)N[C@@H](Cc1c[nH]cn1)C(=O)N[C@@H](CCCCN)C(=O)NCC(=O)N1C2CCCCC2C[C@H]1C(=O)N[C@@H](Cc1ccc(I)cc1)C(=O)N1CCC[C@H]1C(=O)N[C@H](Cc1ccc(-c2ccccc2)cc1)C(=O)O", "note": "(stereo partly drawn) [SEQ ID NO: 53, {Acetyl-NH}Q[hArg]Pr[NMeLeu]SHKG[Oic][pI-Phe]P[D-Bip]{COOH}] (Ac-Q[hArg]P[dR][NMeL]SHKG[Oic(3aξ,7aξ)][Phe(4-I)]P[dBip]-OH)", "values": [
      {"measurement": "systolic and diastolic function in isolated perfused rat hearts", "result": "dose-dependent improvement of both systolic and diastolic function"}
    ]}
  ]
}
